Where a name gives a salt, the structure may show the parent alone.
Key:
[1] = test system: cultured human mast cells (CHMC); test: CHMC low cell density ionomycin activation: tryptase assay; format: cell-based
[2] = test system: cultured human mast cells (CHMC); test: CHMC low cell density IgE activation: tryptase assay; format: cell-based; conditions: anti-IgE
Summary of the method: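 CHMC resuspended in pre-warmed MT buffer at 1000-1500 cells/well (donor-dependent) and preincubated 1 hr at 37° C, then stimulated with anti-IgE for 30 min at 37° C; unstimulated wells got MT alone. Supernatant tryptase activity read with tryptase substrate after 30 min at room temperature.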

Molecule | IC50 [1] [µM] | IC50 [2] [µM] | IC50 ([1]; Homo sapiens, Mast cell) [µM] | IC50 ([2]; Homo sapiens, Mast cell) [µM] | IC50 ([1]; Acetic Acid Salt) [µM]
O=C(O)COc1cccc(Nc2ncc(F)c(Nc3ccc(O)c(C(=O)O)c3)n2)c1 [R950291, N4-(3-Carboxy-4-hydroxyphenyl)-5-fluoro-N2-[3-carboxymethyleneoxyphenyl]-2,4-pyrimidinediamine] | > 10 | > 10 | – | – | –
CNC(=O)COc1ccc(Nc2ncc(F)c(Nc3ccc4c(c3)OCCCO4)n2)cc1 [R935184, 5-Fluoro-N2-[4-(N-methylamino)carbonylmethyleneoxyphenyl]-N4-(3,4-propylenedioxyphenyl)-2,4-pyrimidinediamine] | > 10 | 0.605 | – | – | –
Cc1cnc(Nc2ccc(OCc3nnnn3C)cc2)nc1Nc1cccc(O)c1 [R920894, N4-(3-Hydroxyphenyl)-5-methyl-N2-[4-(1-methyl-1,2,3,4-tetrazol-5-yl)methyleneoxyphenyl]-2,4-pyrimidineamine] | 5.57 | 0.888 | – | – | –
N#CCOc1ccc(Nc2ncc(F)c(Nc3ccc4c(c3)OCCO4)n2)cc1 [R926480, N2-(4-Cyanomethyleneoxyphenyl)-N4-(3,4-ethylenedioxyphenyl)-5-fluoro-2,4-pyrimidinediamine] | > 10 | 1.9 | – | – | –
CC(C)(CO)c1ccc(Nc2ncc(F)c(Nc3cccc(O)c3)n2)cc1 [R935171, 5-Fluoro-N2-[4-(2-hydroxy-1,1-dimethylethyl)phenyl]-N4-(3-hydroxyphenyl)-2,4-pyrimidinediamine] | > 10 | 0.536 | – | – | –
CC(C)Oc1ccc(Nc2nc(Nc3ccc4cnn(CCCO)c4c3)ncc2F)cc1 [R935290, 5-Fluoro-N2-[1-(3-hydroxypropyl)indazoline-6-yl]-N4-(4-isopropoxyphenyl)-2,4-pyrimidinediamine] | > 10 | 0.34 | – | – | –
Fc1cnc(Cl)nc1Nc1ccc2c(c1)CN(c1nc(Cl)ncc1F)CC2 [Compound R926910] | > 10 | > 10 | – | – | –
CNC(=O)COc1cccc(Nc2ncc(F)c(Nc3cccc(-c4nnn[nH]4)c3)n2)c1 [R926855, 5-Fluoro-N2-[3-(N-methylamino)carbonylmethyleneoxyphenyl]-N4-[3-(tetrazol-5-yl)phenyl]-2,4-pyrimidinediamine] | > 10 | > 10 | – | – | –
O=C(COc1cccc(Nc2ncc(F)c(Nc3cc(Cl)c(O)c(Cl)c3)n2)c1)N1CCOCC1 [R950187, N4-(3,5-Dichloro-4-hydroxyphenyl)-5-fluoro-N2-[3-(N-morpholino)carbonylmethyleneoxyphenyl]-2,4-pyrimidinediamine] | > 10 | 0.724 | – | – | –
Fc1cnc(Nc2ccc3c(c2)OCCO3)nc1Nc1ccc(OCc2nc(-c3ccccc3)no2)cc1 [R935140, N2-(3,4-Ethylenedioxyphenyl)-5-fluoro-N4-[4-(3-phenyl-1,2,4-oxadiazol-5-yl)methyleneoxyphenyl]-2,4-pyrimidinediamine] | 0.959 | 0.275 | – | – | –
COC(=O)COc1cccc(Nc2ncc(F)c(Nc3ccc(OC(C)C)cc3)n2)c1 [R945125, 5-Fluoro-N4-(4-isopropoxyphenyl)-N2-(3-methoxycarbonylmethyleneoxyphenyl)-2,4-pyrimidinediamine] | > 10 | 0.896 | – | – | –
Cc1ccc(-c2ccccc2)cc1Nc1ncc(C)c(Nc2cc(-c3ccccc3)ccc2C)n1 [R935001, N2,N4-Bis[(2-methyl-5-phenyl)phenyl]-5-methyl-2,4-pyrimidinediamine] | > 10 | > 10 | – | – | –
COC(=O)COc1cccc(Nc2ncc(F)c(Nc3ccc4c(c3)C(OC)CCO4)n2)c1 (centres unmarked) [R950295, N4-(4-Methoxy-3,4-dihydro-2H-1-benzopyran-6-yl)-5-fluoro-N2-[3-methoxycarbonylmethyleneoxyphenyl]-2,4-pyrimidinediamine] | 8.79 | 2.04 | – | – | –
CNC(=O)COc1cccc(Nc2ncc(F)c(Nc3ccc(OC)c(C(=O)NC)c3)n2)c1 [R940306, 5-Fluoro-N2-[3-(methylaminocarbonylmethyleneoxy)phenyl]-N4-(3-methylaminocarbonyl-4-methoxyphenyl)-2,4-pyrimidinediamine] | > 10 | 1.1 | – | – | –
COc1ccc(Nc2ncc([N+](=O)[O-])c(Nc3ccc(OC)c(OC)c3)n2)cc1OC [R940089, N2,N4-Bis-(3,4-dimethoxyphenyl)-5-nitro-2,4-pyrimidinediamine] | – | – | > 10 | > 10 | –
CCOC(=O)COc1cccc(Nc2ncc(F)c(Nc3ccc4c(c3)NC(C)(C)CO4)n2)c1 [R909308] | > 10 | 0.671 | – | – | –
C[C@H](Nc1nc(Nc2ccc3c(c2)OCCO3)ncc1F)[C@H](O)c1ccccc1 [R925766, N2-(3,4-Ethylendioxyphenyl)-5-fluoro-N4-[(2R)-hydroxy-(1S)-methyl-2-phenylethyl)-2,4-pyrimidinediamine] | > 10 | 8.9 | – | – | –

Molecule | IC50 [1] [µM] | IC50 [2] [µM] | IC50 ([1]; Homo sapiens, Mast cell) [µM] | IC50 ([2]; Homo sapiens, Mast cell) [µM] | IC50 ([1]; Acetic Acid Salt) [µM]
O=C(COc1cccc(Nc2ncc(F)c(Nc3ccc4c(c3)OCCO4)n2)c1)N1CCNCC1 [R926503, N4-(3,4-Ethylenedioxyphenyl)-5-fluoro-N2-[3-(N-piperazino)carbonylmethyleneoxyphenyl]-2,4-pyrimidinediamine] | > 10 | 0.452 | – | – | –
N2-(3-Ethylcarboxy-4H-imidazo[5,1-c]-1,4-benzoxazin-6-yl)-5-fluoro-N4-(3-hydroxyphenyl)pyrimidinediamine [R909267] | > 10 | 0.589 | – | – | –
NC(=O)COc1ccc(Nc2ncc(F)c(Nc3ccc(OCC(N)=O)cc3)n2)cc1 [R945025, N2,N4-Bis[4-(aminocarbonylmethyleneoxy)phenyl]-5-fluoro-2,4-pyrimidinediamine] | > 10 | > 10 | – | – | –
Cn1ncc2cc(Nc3ncc(F)c(Nc4ccc5c(cnn5C)c4)n3)ccc21 [R935192, N2,N4-Bis(1-methyl-indazolin-5-yl)-5-fluoro-2,4-pyrimidinediamine] | > 10 | 0.337 | – | – | –
O=C(COc1ccc(Nc2ncc(F)c(Nc3ccc(OCC(=O)N4CCCC4)cc3)n2)cc1)N1CCCC1 [R926563, N2,N4-Bis(4-N-pyrrolidinocarbonylmethyleneoxyphenyl)-5-fluoro-2,4-pyrimidinediamine] | > 10 | > 10 | – | – | –
CNC(=O)COc1cccc(Nc2ncc(F)c(Nc3ccc4c(c3)OCCO4)n2)c1 [R926826, N4-(3,4-Ethylenedioxyphenyl)-5-fluoro-N2-[3-(N-methylamino)carbonylmethyleneoxyphenyl]-2,4-pyrimidinediamine Trifluoro Acetic Acid Salt] | – | 0.613 | – | – | > 10
CC(C)NC(=O)COc1ccc(Nc2ncc(C#N)c(Nc3ccc(OCC(=O)NC(C)C)cc3)n2)cc1 [R925861, N2,N4-Bis[4-(N-isopropylamino)carbonylmethyleneoxyphenyl]-5-cyano-2,4-pyrimidinediamine] | > 10 | > 10 | – | – | –
CCOC(=O)COc1cccc(Nc2ncc(C(=O)OCC)c(Nc3ccc4c(c3)OCCO4)n2)c1 [R926797, N4-(3,4-Ethylenedioxyphenyl)-N2-(3-ethoxycarbonylmethyleneoxyphenyl)-5-ethoxycarbonyl-2,4-pyrimidinediamine] | > 10 | 2.23 | – | – | –
CNC(=O)COc1cccc(Nc2ncc(F)c(Nc3ccc(OC(C)C)cc3)n2)c1 [R926730, 5-Fluoro-N4-(4-isopropoxyphenyl)-N2-[3-(N-methylamino)carbonylmethyleneoxyphenyl]-2,4-pyrimidinediamine] | > 10 | 0.251 | – | – | –
COC(=O)C1Cc2cc(Nc3ncc(F)c(Nc4cccc(C(F)(F)F)c4)n3)ccc2O1 (racemic) [R927028, (±)-N2-(2,3-Dihydro-2-methoxycarbonylbenzofuran-5-yl)-5-fluoro-N4-(3-trifluorophenyl)-2,4-pyrimidinediamine] | > 10 | 0.208 | – | – | –
CC1(C)Oc2ccc(Nc3nc(Nc4ccc5c(c4)NC(=O)C(F)(F)O5)ncc3F)cc2NC1=O [R940351, N2-[(2,2-Difluoro-4H-benzo[1,4]oxazin-3-one)-6-yl]-N4-[(2,2-dimethyl-4H-benzo[1,4]oxazin-3-one)-6-yl]-5-fluoro-2,4-pyrimidinediamine] | 2.7 | 0.12 | – | – | –
CNc1ncc(F)c(Nc2ccc3c(c2)OCCO3)n1 [R950189] | – | – | > 10 | 10 | –
CCOC(=O)c1cnc(Nc2ccc(OCC(=O)NCC(O)CO)cc2)nc1Nc1cccc(O)c1 (centres unmarked) [R925840, N2-[4-(N-2,3-Dihydroxypropylamino)carbonylmethyleneoxyphenyl]-5-ethoxycarbonyl-N4-(3-hydroxyphenyl)-2,4-pyrimidinediamine] | > 10 | > 10 | – | – | –
O=C(CNc1cccc(Nc2ncc(F)c(Nc3cccc(O)c3)n2)c1)N1CCOCC1 [R950221, 5-Fluoro-N4-(3-hydroxyphenyl)-N2-[3-(N-morpholino)carbonylmethyleneaminophenyl]-2,4-pyrimidinediamine] | > 10 | 0.636 | – | – | –
CCOC(=O)CNC(=O)Nc1c(Nc2ccc(OCC(=O)OCC)cc2)nc(Nc2ccc(OCC(=O)OCC)cc2)nc1C(=O)OCC [R926587, N2,N4-Bis(4-ethoxycarbonylmethyleneoxyphenyl)-6-ethoxycarbonyl-5-(ethoxycarbonylmethyleneaminocarbonylamino)-2,4-pyrimidinediamine] | > 10 | > 10 | – | – | –
CNC(=O)COc1cccc(Nc2ncc(F)c(Nc3cccc(Cl)c3)n2)c1 [R926832, N4-(3-Chlorophenyl)-5-fluoro-N2-[3-(N-methylamino)carbonylmethyleneoxyphenyl]-2,4-pyrimidinediamine] | > 10 | 0.365 | – | – | –
Cn1nnc(COc2ccc(Nc3nc(Nc4ccc(OCc5nnnn5C)cc4)ncc3F)cc2)n1 [R945047, 5-Fluoro-N2,N4-[4-(1-methyl-1,2,3,4-tetrazol-5-yl)methyleneoxyphenyl], [4-(2-methyl-1,2,3,4-tetrazol-5-yl)methyleneoxyphenyl]-2,4-pyrimidinediamine] | > 10 | 0.845 | – | – | –
